From patent US20260199493A1 (priority 2021, published 2026)
Like-named read-outs stand apart in the source and are kept apart here. Starred links: 1 amine or outer side, 2 acyl side, 3 side chain; linkers in the order of their positions; H or OH if unused. Non-standard residues stand in square brackets, D forms with d. Residues, ends and D or L forms follow the SMILES beside them. Groups on a side chain read outwards from the residue. *: point of attachment. X1 = NC(=O)[C@H](CCCCNC(=O)COCCOCCNC(=O)CCC(=O)NCCOCCOCCCCCCCl)N*; Ala(piperidin-4-yl) = O=C([C@H](CC1CCN([*:3])CC1)N[*:1])[*:2]; Phe(4-guanidino) = N=C(N)Nc1ccc(C[C@H](N)C(=O)O)cc1; 2Nal = N[C@@H](Cc1ccc2ccccc2c1)C(=O)O; Lys(Me2) = CN(C)CCCC[C@H](N)C(=O)O; hArg = N=C(N)NCCCC[C@H](N)C(=O)O; Cit = NC(=O)NCCC[C@H](N)C(=O)O; Agb = N=C(N)NCC[C@H](N)C(=O)O; Agp = N=C(N)NC[C@H](N)C(=O)O; PEG4 = NCCOCCOCCOCCOCCC(=O)O

Key:
[1] = system: HaloTag-ActA fusion protein; assay: Chloroalkane penetration assay (HaloTag); type: cell-based; settings: HEK293-HaloTag cells, chloroalkane-tagged peptide, 24 h with FBS, then 5 μM TMR-ct
Source text: Assay design. HEK293 cells were produced that stably express a HaloTag-ActA fusion protein (“HEK293-HaloTag”) which ensures fusion protein localization to the outer mitochondrial membrane with exposure to the cytosol. The HaloTag protein rapidly reacts covalently with short chloroalkane-containing compounds, occupying the active site and preventing further reactions. The chloroalkane penetration assay utilizes this reactivity in a pulse-chase assay where cells are first treated with cCPPs-chloroalkane of interest, followed by incubation with cell-permeable fluorescent dye tetramethylrhodamine-chloroalkane (“TMR-ct”). If cCPPs have gained access to the cytosol, they will react with HaloTag and prevent it from reacting with TMR-ct. The relative cell-penetrating efficiency of compounds can therefore be determined by their ability to reduce cellular TMR fluorescence after a washout period with this value expressed as IC50.
Cell penetrating peptides. Cell penetrating peptides having the sequences indicated in Table 13 (below) were functionalized on the lysine residue with a chloroalkane tag of the sequence N^1-(2-(2-((5-chlorohexyl)oxy)ethoxy)ethyl-N^4-(2-(2-(2-oxoethoxy)ethoxy)ethyl)succinamide (referred to as “chloroalkane” in Table 13), purified, and prepared as stock solutions in DMSO with concentration determined by A280 or weight as applicable.
Determination of cell-penetrating efficiency. Compounds to be evaluated were prepared as stock solutions in DMSO and diluted in PBS before addition to HEK293-HaloTag ells as a serial dilution from 30 μM to 0.5 nM. Cells were incubated with the compounds at a given concentration for 24 h in the presence of FBS at 37° C. After incubation, cells were washed thoroughly with PBS and to the cells was added fresh, serum-free media containing 5 μM TMR-ct and incubated for 30 min. After incubation, the cells were washed and incubated in fresh media to wash-out any unreacted TMR-ct. Cells were then imaged and quantified for cellular fluorescence using high-content imaging. Values are normalized to vehicle-treated cells and an IC50 calculated using a 4-parameter logarithmic fit in GraphPad PRISM v.8.

[2] = system: exon 44 of human dystrophin mRNA; assay: Exon 44 skipping by RT-PCR in hDMD mice; type: in vivo; settings: hDMD mice, 5 days
Description: The hemizygous mice were further genotyped at Transnetyx. All groups were dosed 5 mL/kg per animal by intravenous (iv) injection and sacrificed after 5 days post injection. All animals were euthanized by CO2 asphyxiation followed by terminal blood collection via cardiac puncture. Maximum obtainable volume of whole blood was collected into lithium heparin tubes and processed to plasma. A portion of plasma was analyzed for clinical chemistries by the Testing Facility (IDEXX) and the rest stored frozen at nominally −70° C. […] Animals were age matched and assigned into eight (8) treatment groups according to Table 15. […] All animals survived until their scheduled euthanasia time. Tissues were collected per protocol. The amount of AC and a cCPP-AC in various tissue samples was quantified by LC-MS. Exon skipping in different tissues were analyzed by RT-PCR and the quantification of exon 44 correction.
Exon Skipping Analysis by RT-PCR: hDMD mice and NHP express full-length human dystrophin mRNA. The delivery of AC can alter the splicing and result in a shortened dystrophin mRNA after exon 44 skipping. The tissues were homogenized using 1 mL of RLT lysis buffer (Qiagen, Cat #79216). The detection of splicing correction process was measured by RT-PCR where extracted RNAs from tissues were first reverse-transcribed into cDNA and further analyzed by one step RT-PCR using the following primer set: forward primer 5′-[…]-3′ (SEQ ID NO: 262) and reverse primer 5′-[…]-3′ (SEQ ID NO: 263). […] Quantification of the relative intensity of the bands corresponding to skipped and unskipped transcripts were performed to assess AC-induced exon-44-skipping efficacy. The degree (percentage) of splicing correction detected by RT-PCR was calculated using the following equation: % correction=(intensity of 493 bp fragment band)/(intensity of 493 bp fragment band+intensity of 641 bp fragment band).

[3] = MDX mice, single IV 20 mg/kg, day 5

Compound: N=C(N)NCCC[C@H]1NC(=O)[C@H](CCCNC(N)=O)NC(=O)[C@@H](CCCNC(=N)N)NC(=O)[C@H](CCCNC(N)=O)NC(=O)[C@H](Cc2ccc3ccccc3c2)NC(=O)[C@@H](Cc2ccccc2)NC(=O)[C@H](Cc2ccccc2)NC(=O)[C@H](CCC(=O)NCCOCCOCCOCCOCCC(=O)N[C@@H](CCCCNC(=O)COCCOCCNC(=O)CCC(=O)NCCOCCOCCCCCCCl)C(N)=O)NC1=O [Compound 1a, cyclo(FfΦ-Cit-r-Cit-rQ)-PEG4-K-NH2] (cyclo([2Nal][Cit][dR][Cit][dR]E([PEG4-X1])F[dF]))
- IC50 [1]: 849 nM

Compound: N=C(N)NCCC[C@H]1NC(=O)[C@H](CC2CCNCC2)NC(=O)[C@@H](CCCNC(=N)N)NC(=O)[C@H](CC2CCNCC2)NC(=O)[C@H](Cc2ccc3ccccc3c2)NC(=O)[C@@H](Cc2ccccc2)NC(=O)[C@H](Cc2ccccc2)NC(=O)[C@H](CCC(=O)NCCOCCOCCOCCOCCC(=O)N[C@@H](CCCCNC(=O)COCCOCCNC(=O)CCC(=O)NCCOCCOCCCCCCCl)C(N)=O)NC1=O [Compound 2a, cyclo(FfΦ-Pia-r-Pia-rQ)-PEG4-K-NH2] (cyclo([2Nal][Ala(piperidin-4-yl)][dR][Ala(piperidin-4-yl)][dR]E([PEG4-X1])F[dF]))
- IC50 [1]: 881 nM

Compound: CN(C)CCCC[C@@H]1NC(=O)[C@H](Cc2ccc3ccccc3c2)NC(=O)[C@@H](Cc2ccccc2)NC(=O)[C@H](Cc2ccccc2)NC(=O)[C@H](CCC(=O)NCCOCCOCCOCCOCCC(=O)N[C@@H](CCCCNC(=O)COCCOCCNC(=O)CCC(=O)NCCOCCOCCCCCCCl)C(N)=O)NC(=O)[C@@H](CCCNC(=N)N)NC(=O)[C@H](CCCCN(C)C)NC(=O)[C@@H](CCCNC(=N)N)NC1=O [Compound 3a, cyclo(FfΦ-Dml-r-Dml-rQ)-PEG4-K-NH2] (cyclo(F[dF][2Nal][Lys(Me2)][dR][Lys(Me2)][dR]E([PEG4-X1])))
- IC50 [1]: 932 nM

Compound: N=C(N)NCCC[C@H]1NC(=O)[C@H](CNC(=N)N)NC(=O)[C@@H](CCCNC(=N)N)NC(=O)[C@H](CNC(=N)N)NC(=O)[C@H](Cc2ccc3ccccc3c2)NC(=O)[C@@H](Cc2ccccc2)NC(=O)[C@H](Cc2ccccc2)NC(=O)[C@H](CCC(=O)NCCOCCOCCOCCOCCC(=O)N[C@@H](CCCCNC(=O)COCCOCCNC(=O)CCC(=O)NCCOCCOCCCCCCCl)C(N)=O)NC1=O [Compound A, cyclo(FfΦ-Agp-r-Agp-rQ)-PEG4-K-NH2] (cyclo([2Nal][Agp][dR][Agp][dR]E([PEG4-X1])F[dF]))
- IC50 [1]: 626 nM

Compound: N=C(N)NCCC[C@H]1NC(=O)[C@H](CCNC(=N)N)NC(=O)[C@@H](CCCNC(=N)N)NC(=O)[C@H](CCNC(=N)N)NC(=O)[C@H](Cc2ccc3ccccc3c2)NC(=O)[C@@H](Cc2ccccc2)NC(=O)[C@H](Cc2ccccc2)NC(=O)[C@H](CCC(=O)NCCOCCOCCOCCOCCC(=O)N[C@@H](CCCCNC(=O)COCCOCCNC(=O)CCC(=O)NCCOCCOCCCCCCCl)C(N)=O)NC1=O [Compound B, cyclo(FfΦ-Agb-r-Agb-rQ)-PEG4-K-NH2] (cyclo([2Nal][Agb][dR][Agb][dR]E([PEG4-X1])F[dF]))
- IC50 [1]: 695 nM

Compound: N=C(N)NCCCC[C@@H]1NC(=O)[C@H](Cc2ccc3ccccc3c2)NC(=O)[C@@H](Cc2ccccc2)NC(=O)[C@H](Cc2ccccc2)NC(=O)[C@H](CCC(=O)NCCOCCOCCOCCOCCC(=O)N[C@@H](CCCCNC(=O)COCCOCCNC(=O)CCC(=O)NCCOCCOCCCCCCCl)C(N)=O)NC(=O)[C@@H](CCCNC(=N)N)NC(=O)[C@H](CCCCNC(=N)N)NC(=O)[C@@H](CCCNC(=N)N)NC1=O [Compound C, cyclo(FfΦ-hR-r-hR-rQ)-PEG4-K-NH2] (cyclo([2Nal][hArg][dR][hArg][dR]E([PEG4-X1])F[dF]))
- IC50 [1]: 786 nM

Compound: N=C(N)NCCC[C@H]1NC(=O)[C@H](Cc2ccc(NC(=N)N)cc2)NC(=O)[C@@H](CCCNC(=N)N)NC(=O)[C@H](Cc2ccc(NC(=N)N)cc2)NC(=O)[C@H](Cc2ccc3ccccc3c2)NC(=O)[C@@H](Cc2ccccc2)NC(=O)[C@H](Cc2ccccc2)NC(=O)[C@H](CCC(=O)NCCOCCOCCOCCOCCC(=O)N[C@@H](CCCCNC(=O)COCCOCCNC(=O)CCC(=O)NCCOCCOCCCCCCCl)C(N)=O)NC1=O [Compound D, cyclo(FfΦ-4gp-r-4gp-rQ)-PEG4-K-NH2] (cyclo([2Nal][Phe(4-guanidino)][dR][Phe(4-guanidino)][dR]E([PEG4-X1])F[dF]))
- IC50 [1]: 695 nM

Compound: CCOCc1nc2c(N)nc3ccccc3c2n1CC(C)(C)O [Compound R848, reference compound]
- IRF5 protein expression (IRF5 protein): significantly increases IRF5 Protein expression

Compound: N=C(N)NCCC[C@@H]1NC(=O)[C@H](Cc2ccc3ccccc3c2)NC(=O)[C@@H](Cc2ccccc2)NC(=O)[C@H](Cc2ccccc2)NC(=O)[C@H](CCC(=O)NCCOCCOCCOCCOCCC(=O)N[C@@H](CCCCNC(=O)COCCOCCNC(=O)CCC(=O)NCCOCCOCCCCCCCl)C(N)=O)NC(=O)[C@@H](CCCNC(=N)N)NC(=O)[C@H](CCCNC(=N)N)NC(=O)[C@@H](CCCNC(=N)N)NC1=O [EEV12, cyclo(FfΦRrRrQ)-PEG4-K(chloroalkane)-NH2, reference compound] (cyclo([2Nal]R[dR]R[dR]E([PEG4-X1])F[dF]))
- IC50 [1]: 792 nM

Compound: Ac-KBK-AEEA-K(cyclo[FGFGRGRQ])-AEEA-K(N3)-NH2 [EEV-PMO-MDX-5]
- exon skipping in heart vs diaphragm, tibialis anterior, triceps (exon 23 of DMD; mouse, in vivo, iv, 20 mg/kg): a lower level of exon skipping in heart tissue

Compound: Ac-PKKKRKV-AEEA-K(cyclo[FGFGRGRQ])-AEEA-K(N3)-NH2 [EEV-PMO-MDX-4]
- exon skipping in heart vs diaphragm, tibialis anterior, triceps (exon 23 of DMD; [3]): a lower level of exon skipping in heart tissue

Compound: Ac-PKKKRKV-AEEA-K(cyclo[FGFGRGRQ])-PEG12-OH [EEV-PMO-IRF5-1]
- IRF-5 protein expression compared to cells stimulated with R848 (IRF5 protein; RAW 264.7 cells, all tested concentrations): significant reduction in IRF-5 protein expression
- IRF5 protein levels (IRF5 protein; mouse macrophage cells, 30 μM, 10 μM and 3 μM): statistically significant reduction of IRF5 protein levels

Compound: Ac-PKKKRKV-AEEA-K(cyclo[FfFGRGRQ])-AEEA-K(N3)-NH2 [EEV-PMO-MDX-7]
- exon skipping in heart vs diaphragm, tibialis anterior, triceps (exon 23 of DMD; [3]): a lower level of exon skipping in heart tissue

Compound: Ac-PKKKRKV-AEEA-K(cyclo[GfFGrGrQ])-AEEA-K(N3)-NH2 [EEV-PMO-MDX-6]
- exon skipping in heart vs diaphragm, tibialis anterior, triceps (exon 23 of DMD; [3]): a lower level of exon skipping in heart tissue

Compound: Ac-PKKKRKV-AEEA-K(cyclo[GfFGrGrQ])-PEG12-OH [EEV-PMO-DMD44-2]
- exon skipping ([2]; 10 mpk IV, Diaphragm): 14%
- exon skipping ([2]; 10 mpk IV, TiA): 22%
- exon skipping ([2]; 10 mpk IV, Triceps): 17%
- exon skipping ([2]; 10 mpk IV, heart): 0%
- exon skipping ([2]; 20 mpk IV, Diaphragm): 35%
- exon skipping ([2]; 20 mpk IV, TiA): 58%
- exon skipping ([2]; 20 mpk IV, Triceps): 44
- exon skipping ([2]; 20 mpk IV, heart): 2%
- exon skipping ([2]; 40 mpk IV, Diaphragm): 83%
- exon skipping ([2]; 40 mpk IV, TiA): 95%
- exon skipping ([2]; 40 mpk IV, Triceps): 92%
- exon skipping ([2]; 40 mpk IV, heart): 17%
- exon skipping ([2]; 80 mpk IV, Diaphragm): 99%
- exon skipping ([2]; 80 mpk IV, TiA): 99%
- exon skipping ([2]; 80 mpk IV, Triceps): 98%
- exon skipping ([2]; 80 mpk IV, heart): 79%
- minimum efficacious dose in the heart ([2]; IV): 40 mpk
